Where two headings read alike, the source gives them in different places.

We go through 2 compounds from PMC5817390 (The Pharmacogenomics Journal, 2016).

The format of series [1] is in vivo, human (healthy subjects). The conditions noted are these: for AUC(0-inf): AUCinf.
The conditions of series [2]: cited from earlier work.
Series [3] has as its system organic anion transporter protein 1B1 (OATP1B1). The following applies: in vitro studies; cited from earlier work.
For series [4] the following is noted: on a molar basis; ref data on file; cited from earlier work.
The conditions of series [5]: healthy volunteers; cited from earlier work.
In series [6] the test system is P-glycoprotein (P-gp; MDR1). The following applies: in vitro studies; cited from earlier work.
The conditions of series [7]: single 60-mg dose, healthy subjects, 14 phase 1 studies; cited from earlier work.
The mark [8] stands for this setting: SLCO1B1 rs4149056 C-carriers vs TT homozygotes, with 90% CI.
Where [9] appears, read: SLCO1B1 rs4149056 C-carriers, single 60-mg edoxaban, mean±s.d.
The mark [10] stands for this setting: SLCO1B1 rs4149056 TT, M4 to edoxaban, adjusted for molecular weights, mean±s.d.
The mark [11] stands for this setting: SLCO1B1 rs4149056 TT, single 60-mg edoxaban, mean±s.d.
Where [12] appears, read: single 60-mg edoxaban, healthy subjects.
[13] abbreviates: ABCB1 rs1045642 CT, single 60-mg edoxaban, mean±s.d.

`CN1CCc2nc(C(=O)N[C@@H]3C[C@@H](C(=O)O)CC[C@@H]3NC(=O)C(=O)Nc3ccc(Cl)cn3)sc2C1` [M4]: in series [1] (setting [8]), the “geometric LS means ratio, AUCinf” value was 126.9 (90% CI, 117.4–137.1); the “geometric LS means ratio, C24” value is recorded as 114.9 (90% CI, 104.0–127.0); the “geometric LS means ratio, Cmax” value is on record as 124.1 (90% CI, 111.9–137.5). The compound also displayed a C24 in series [1] (SLCO1B1 rs4149056 C-carriers, 24 h postdose, single 60-mg edoxaban, mean±s.d.) of 1.3 ± 0.74 ng/mL. Further, in series [1] (setting [9]), the “AUC0–24” value is 170.0 ± 73.0 ng·h/mL; the AUCinf is 191.9 ± 76.4 ng·h/mL; the AUClast came out at 184.6 ± 75.6 ng·h/mL; the peak concentration (Cmax) (in general, the peak of the concentration-time curve) came to 26.7 ± 13.6 ng/mL. In series [1] (SLCO1B1 rs4149056 TT, 24 h postdose, single 60-mg edoxaban, mean±s.d.), this compound displayed a C24 of 1.1 ± 0.57 ng/mL. Further, in series [1] (setting [10]), the “MPR AUCinf (metabolite to parent ratio)” value turned out to be 8.7±2.9, the “MPR AUClast (metabolite to parent ratio)” value is 8.7±2.9 and the “MPR Cmax (metabolite to parent ratio)” value was 8.8±3.1. In series [1] (setting [11]), the “AUC0–24” value is 134.7 ± 57.2 ng·h/mL, the AUCinf turned out to be 150.2 ± 61.4 ng·h/mL, the AUClast worked out at 147.1 ± 60.7 ng·h/mL and the highest concentration (Cmax) came out at 21.2 ± 10.7 ng/mL. The “plasma M4 concentration as share of edoxaban levels” value in series [1] (plasma, healthy subjects) is less than 10%. In addition, the “effect of SLCO1B1 T521C SNP on exposure” value in series [1] (setting [12]) is listed as “elevated among C-carriers”. For the same compound, the “share of the total anticoagulant exposure” value in series [2] is less than 10%. Also, the “substrate of OATP1B1” value in series [3] was “substrate”. The “anticoagulant activity compared with edoxaban” value in series [4] is on record as “similar”. Besides, in series [5], the “levels on coadministration of cyclosporine or rifampin” value is reported as “increase”.

In the case of `CN1CCc2nc(C(=O)N[C@@H]3C[C@@H](C(=O)N(C)C)CC[C@@H]3NC(=O)C(=O)Nc3ccc(Cl)cn3)sc2C1` [Edoxaban, edoxaban], the entries for the “AUC0–24” value in series [1] (setting [13]), in series [1] (setting [9]) and in series [1] (setting [11]) were 1671 ± 420.3 ng·h/mL, 1643.8 ± 392.9 ng·h/mL and 1644.1 ± 440.6 ng·h/mL, respectively. Further, the AUCinf is 1845 ± 417.8 ng·h/mL in series [1] (setting [13]), 1815.5 ± 382.4 ng·h/mL in series [1] (setting [9]) and 1823.5 ± 444.9 ng·h/mL in series [1] (setting [11]). For the same compound, the AUC(0-t) (in general, the area under the concentration-time curve up to a stated or last time point) in series [1] (both, human, in vivo, 60 mg, AUC0–24, ABCB1 rs1045642 CC, single 60-mg edoxaban, mean±s.d.) is 1610 ± 441 ng·h/mL; in series [1] (both, human, in vivo, 60 mg, AUC0–24, ABCB1 rs1045642 TT, single 60-mg edoxaban, mean±s.d.), 1680 ± 442 ng·h/mL; in series [1] (both, human, in vivo, 60 mg, AUClast, ABCB1 rs1045642 CC, single 60-mg edoxaban, fasting, plasma, mean±s.d.), 1760 ± 447 ng·h/mL; in series [1] (both, human, in vivo, 60 mg, AUClast, ABCB1 rs1045642 CT, single 60-mg edoxaban, fasting, plasma, mean±s.d.), 1810 ± 417 ng·h/mL; in series [1] (both, human, in vivo, 60 mg, AUClast, ABCB1 rs1045642 TT, single 60-mg edoxaban, fasting, plasma, mean±s.d.), 1820 ± 435 ng·h/mL; in series [1] (both, human, in vivo, 60 mg, AUClast, SLCO1B1 rs4149056 C-carriers, single 60-mg edoxaban, mean±s.d.), 1780 ± 381 ng·h/mL. The compound also came in with an exposure AUC(0-t) in series [1] (both, human, in vivo, 60 mg, AUClast, SLCO1B1 rs4149056 TT, single 60-mg edoxaban, mean±s.d.) of 1790 ± 443 ng·h/mL. Further, the AUC(0-inf) – broadly, total exposure, with the tail of the curve extrapolated – in series [1] (both, human, in vivo, 60 mg, ABCB1 rs1045642 CC, single 60-mg edoxaban, mean±s.d.) came out at 1790 ± 450 ng·h/mL; in series [1] (both, human, in vivo, 60 mg, ABCB1 rs1045642 TT, single 60-mg edoxaban, mean±s.d.), 1860 ± 436 ng·h/mL. Also, the concentration at 24 h in series [1] (both, human, in vivo, 60 mg, C24, ABCB1 rs1045642 CC, plasma concentration at 24 h postdose, single 60-mg edoxaban, mean±s.d.) came to 12.5 ± 5.11 ng/mL; in series [1] (both, human, in vivo, 60 mg, C24, ABCB1 rs1045642 TT, plasma concentration at 24 h postdose, single 60-mg edoxaban, mean±s.d.), 12.3 ± 6.46 ng/mL; in series [1] (both, human, in vivo, 60 mg, C24, SLCO1B1 rs4149056 C-carriers, 24 h postdose, single 60-mg edoxaban, mean±s.d.) it was 11.6 ± 4.8 ng/mL; in series [1] (both, human, in vivo, 60 mg, C24, SLCO1B1 rs4149056 TT, 24 h postdose, single 60-mg edoxaban, mean±s.d.), 12.3 ± 5.4 ng/mL. The compound also displayed a Cmax in series [1] (both, human, in vivo, 60 mg, Cmax, ABCB1 rs1045642 TT, single 60-mg edoxaban, mean±s.d.) of 261 ± 101 ng/mL. In addition, the “effect of ABCB1 C3435T SNP on exposure” value in series [1] (setting [12]) is “does not significantly affect”. Further, the “effect of SLCO1B1 T521C SNP on exposure” value in series [1] (setting [12]) is given as “does not influence”. The “absorbed dose renally eliminated” value in series [2] was ~ 50%. Further, in series [2], the “absorbed drug eliminated unmodified” value is on record as approximately 73%. Also, in series [6], the “substrate of P-glycoprotein” value was “substrate”. In series [7], the tolerability result is “generally well tolerated”.
